Test results as given in EP4755891A1, “ARF1 INHIBITOR AND USE THEREOF” (AOBIO PHARMACEUTICAL CO., LTD., priority 2023, dated 2025).
Entries after “also recorded” stand apart in the source; their conditions may differ.

Tests used:
CT26 colon cancer [1] = experiment: Inhibition of CT26 colon cancer in BALB/c mice (Example 47, 5 mg/kg); type: in vivo; details: gavaged daily, two consecutive weeks, FIG. 9 and FIG. 10
Description: In this example, the inhibitory effects of Compounds 9, 11-3, 25, 26, 27, and DU102 on colon cancer growth were tested.
Murine CT26 cells were inoculated into the left abdomen of 6-week-old male mice at a dose of 5×10^5 cells per mouse. Approximately 7 days later, the mice were randomly divided into two groups: the control group or the compound treatment group. They were gavaged daily with either the vehicle control (ddH2O or 5% DMSO in corn oil) or 5 mg/kg of Compounds 9, 11-3, 25, 26, or 27 (dissolved in the corresponding vehicle) for two consecutive weeks. Tumor diameters were measured every 2-3 days using a digital caliper (ULINE, Cat^# H-7352), and the tumor volume was calculated using the formula ½ × longitudinal diameter (length) × maximum transverse diameter (width). When the maximum tumor volume reached 2000 mm^3, the mice were euthanized.

CT26 colon cancer [2] = experiment: Inhibition of CT26 colon cancer in BALB/c mice (Example 48, 10 mg/kg); type: in vivo; details: gavaged daily, two consecutive weeks, FIG. 11
Description: In this example, the inhibitory effects of Compounds 28, 30, 31, 33, 34, and DU102 synthesized in the above preparation examples on the growth of colon cancer were tested.
Murine CT26 cells were inoculated into the left abdomen of 6-week-old male mice at a dose of 5×10^5 cells per mouse. Approximately 7 days later, the mice were randomly divided into two groups: the control group or the compound treatment group. The mice were gavaged daily with either the vehicle control (ddH2O or 5% DMSO in corn oil) or 10 mg/kg of Compounds 28, 30, 31, 33, 34, and DU102 (dissolved in the corresponding vehicle) for two consecutive weeks. Tumor diameters were measured every 2-3 days using a digital caliper (ULINE, Cat^# H-7352), and the tumor volume was calculated using the formula ½ × longitudinal diameter (length) × maximum transverse diameter (width). When the maximum tumor volume reached 3000 mm^3, the mice were euthanized.

NF-κB signaling pathway = experiment: Activation of NF-κB signaling pathway (phosphorylated P65, Western blot); type: cell-based, Murine; details: CT26 cells; FIG. 6
Description: In this example, Compounds 3 and 9 synthesized in the above preparation examples were tested for their ability to activate the NF-κB signaling pathway, as indicated by an increase of phosphorylated P65. GCA, a known Arf1 inhibitor, was used as a positive control.
In CT26 cells treated with DMSO, GCA, Compound 3, or Compound 9, the relevant protein levels were evaluated by Western blot analysis as previously described (Wang et al., 2020).

Mouse neuroblastoma N2A = experiment: Test for Golgi morphology abnormalities (GM130 immunofluorescence); type: cell-based; details: N2A cells; FIG. 4
Description: GCA, a known Arf1 inhibitor, was used as a positive control.
Mouse neuroblastoma N2A (N2a, ATCC®CCL-131™) was cultured, treated, and subjected to immunofluorescence staining as previously reported (Wang et al., 2021).

Arf1 = target: T1, Arf1 (Homo sapiens, UniProt P84077); experiment: Inhibition test of Arf1 activation (Active Arf1 pull-down and detection kit, Western blot); type: cell-based; details: lysate of liver cancer Huh-7 cells; GTP-bound Arf1; FIG. 3
T1 construct: endogenous in cells; host or cells: Huh-7 liver cancer cells (lysate)
Description: In this example, the inhibitory ability of Compounds 3 and 9 synthesized in the above preparation examples on Arf1 activation was tested. The Pierce Active Arf1 Pull-Down and Detection Kit (Thermo Scientific, Cat#16121) was used with the lysate of liver cancer Huh-7 cells to detect the activated Arf1. It is a complete kit that selectively enriches and detects GTP-bound Arf1 GTPase through specific protein interactions with the GGA3 protein-binding domain.

CCL5 = experiment: Upregulation of chemokine CCL5 expression (quantitative RT-PCR); type: cell-based, Murine; details: CT26 cells; FIG. 5
Description: In this example, the upregulation of chemokine CCL5 expression induced by the treatment of Compounds 3 and 9 synthesized in the above preparation examples was tested. Quantitative RT-PCR was used to measure the expression level of chemokine CCL5 in CT26 cells treated with DMSO, Compound 3, or Compound 9.

[3] = test system: Drosophila orthotopic tumors; experiment: Inhibition of orthotopic tumor growth in Drosophila; type: in vivo; details: 5 µM in food, 4 days; Ras^V12-PMML clones; FIG. 7
Description: In this example, the inhibitory effects of Compounds 3 and 9 synthesized in the above preparation examples on the growth of Drosophila orthotopic tumors were tested. As previously described, renal stem cell tumor clusters were induced by expressing Ras in Drosophila renal stem cell (Ras^V12-PMML) clones (Singh et al., 2016). The Drosophila carrying Ras^V12-PMML clones were cultured with normal food at room temperature for 4 days to allow tumor growth. They were then switched to food containing the indicated drugs for an additional 4 days, followed by feeding the Drosophila carrying Ras^V12-PMML with normal food containing DMSO or 5 µM Compound 3 or Compound 9. In the indicated groups, the number of esg>GFP + tumor cells per 5×10^3 µm^2 area was quantified to characterize tumor size.

T1 sequence (P84077 whole entry): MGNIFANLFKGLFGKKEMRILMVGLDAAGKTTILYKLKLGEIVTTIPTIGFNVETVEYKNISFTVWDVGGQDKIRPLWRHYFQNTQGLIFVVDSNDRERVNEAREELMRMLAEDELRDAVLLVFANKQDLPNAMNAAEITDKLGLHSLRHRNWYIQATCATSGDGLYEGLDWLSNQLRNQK

For `Cc1nc2ccc(Nc3ncnc4scc(C)c34)cc2[nH]1` [Compound 25, 5-Methyl-N-(2-methyl-1H-benzo[d]imidazol-6-yl)thieno[2,3-d]pyrimidin-4-amine], the “inhibition of CT26 colon cancer” value (CT26 colon cancer [1]) was “effectively inhibit CT26 colon cancer”.

In the case of `Cn1cnc2cc(Nc3ncnc4sc5c(c34)CCN(C(=O)c3ccc(Cl)s3)C5)ccc21` [Compound 26, (5-Chlorothiophen-2-yl)(4-((1-methyl-1H-benzo[d]imidazol-5-yl)amino)-5,8-dihydropyrido[4',3':4,5]thieno[2,3-d]pyrimidin-7(6H)-yl)methanone], the “inhibition of CT26 colon cancer” value (CT26 colon cancer [1]) is reported as “effectively inhibit CT26 colon cancer”.

For `Cc1nc2ccc(Nc3ncnc4sc5c(c34)CCNC5)cc2[nH]1` [Compound 28, N-(2-Methyl-1H-benzo[d]imidazol-6-yl)-5,6,7,8-tetrahydropyrido[4',3':4,5]thieno[2,3-d]pyrimidin-4-amine], the “inhibition of CT26 colon cancer” value (CT26 colon cancer [2]) was “effectively inhibit CT26 colon cancer”.

For `CC(=O)N1CCc2c(sc3ncnc(Nc4ccc5nc(C)[nH]c5c4)c23)C1` [Compound 30, 1-(4-((2-Methyl-1H-benzo[d]imidazol-6-yl)amino)-5,8-dihydropyrido[4',3':4,5]thieno[2,3-d]pyrimidin-7(6H)-yl)ethanone], the “inhibition of CT26 colon cancer” value (CT26 colon cancer [2]) was “effectively inhibit CT26 colon cancer”.

`Cc1nc2cc(Nc3ncnc4sc5c(c34)CCCCCC5)ccc2[nH]1` [Compound 31, N-(2-Methyl-1H-benzo[d]imidazol-5-yl)-5,6,7,8,9,10-hexahydrocycloocta[4,5]thieno[2,3-d]pyrimidin-4-amine] was tested, and the “inhibition of CT26 colon cancer” value (CT26 colon cancer [2]) was “effectively inhibit CT26 colon cancer”.

`Cc1nc2cc(/C=N/Nc3ncnc4sc5c(c34)CCCCCC5)ccc2[nH]1` [Compound 33, (E)-4-(2-((2-Methyl-1H-benzo[d]imidazol-5-yl)methylene)hydrazinyl)-5,6,7,8,9,10-hexahydrocycloocta[4,5]thieno[2,3-d]pyrimidine] was tested, and the “inhibition of CT26 colon cancer” value (CT26 colon cancer [2]) was “effectively inhibit CT26 colon cancer”.

`Fc1cc(F)c2c(c1)[C@H]1C=CC[C@H]1C(c1cccnc1)N2` (stereo partly shown) [GCA, reference compound] was tested, and the “phosphorylation level of P65” value (NF-κB signaling pathway) was “increase the phosphorylation level of P65” and the “Golgi morphology (Golgi apparatus defects, distribution of Golgi marker GM130)” value (Mouse neuroblastoma N2A) was “effectively induce morphological changes in the Golgi apparatus”.

With “N-(1H-Indol-5-yl)-methylthieno[2,3-d]pyrimidin-4-amine [Compound 3]” the “inhibition of Arf1 activation” value (Arf1) was “effectively inhibit the activation of Arf1; also recorded: effective inhibitors”, the “expression of the chemokine CCL5” value (CCL5) was “effectively promote the expression” and the “orthotopic tumor growth in Drosophila” value [3] was “effectively inhibit orthotopic tumor growth”. For the same compound, the “phosphorylation level of P65” value (NF-κB signaling pathway) was “increase the phosphorylation level of P65” and the “Golgi morphology (Golgi apparatus defects, distribution of Golgi marker GM130)” value (Mouse neuroblastoma N2A) was “induce Golgi apparatus defects; also recorded: effectively induce morphological changes in the Golgi apparatus”.
